Our source for the IC50 values is patent US9216173B2, “2-Pyridyl carboxamide-containing spleen tyrosine kinase (SYK) inhibitors” (Merck Sharp & Dohme Corp., priority 2011, dated 2015).

The first assay concerns the target T1, recombinant human GST-SYK (Homo sapiens, UniProt P43405).
T1 construct: purchased Carna Biosciences 08-176
Briefly: Homogeneous Time-Resolved Fluorescence (HTRF) assay for the recombinant human Syk enzyme. To be noted: GST-hSYK 5 pM, ATP 25 μM, 10-dose titration 10 μM to 0.508 nM; read-out: IC50. It counts as biochemical. On the procedure:
Homogeneous Time-Resolved Fluorescence (HTRF) Assay for the Recombinant Human Syk Enzyme
A recombinant GST-hSYK fusion protein was used to measure potency of compounds to inhibit human Syk activity. […] Final volume of the reaction was 10 μL. Phosphorylation of the peptide was allowed to proceed for 45 minutes at room temperature. To quench the reaction and detect the phosphorylated product, 2 nM of a Europium-anti-phosphotyrosine antibody (Perkin Elmer #AD0161) and 70 nM SA-APC (Perkin-Elmer #CR130-100) were added together in 15 mM Tris pH 7.5, 40 mM EDTA, 0.01% tween 20. Final volume of the quenching solution was 10 μL. The resulting HTRF signal was measured after 30 minutes on an EnVision (Perkin-Elmer) reader using a time-resolved fluorescence protocol.
Background: TR-FRET usually uses a lanthanide donor and a delayed reading to cut background.
For orientation: IC50 means the point on the concentration scale where inhibition reaches its midpoint. As to `Cn1ccc(Nc2cc(N[C@@H]3CS(=O)(=O)CC[C@@H]3N)cnc2C(N)=O)n1` (relative stereo) [Example 1.89, rel-5-{[(3S,4S)-4-amino-1,1-dioxidotetrahydro-2H-thiopyran-3-yl]amino}-3-[(1-methyl-1H-pyrazol-3-yl)amino]pyridine-2-carboxamide], the IC50 was found to be 340 nM.

The same assay, now with this note: GST-hSYK 5 pM, ATP 25 μM, 10-dose titration 10 μM to 0.508 nM; read-out: rhSYK Activity (IC50 rating).
On to `CC1=CCCc2nc(Nc3cc(N[C@@H]4CCCC[C@@H]4N)cnc3C(N)=O)ccc21` [Example 18, 5-{[(1R,2S)-2-aminocyclohexyl]amino}-3-[(5-methyl-7,8-dihydroquinolin-2-yl)amino]pyridine-2-carboxamide], for which the IC50 was below 10 nM. Still for that read-out and setting: next, `NC(=O)c1ncc(N[C@@H]2CCCC[C@@H]2N)cc1Nc1cc(Cl)cc(Cl)n1` [Example 1.73, 5-{[(1R,2S)-2-aminocyclohexyl]amino}-3-[(4,6-dichloropyridin-2-yl)amino]pyridine-2-carboxamide]: below 10 nM; `Cn1ccc(Nc2cc(N[C@@H]3CS(=O)(=O)CC[C@@H]3N)cnc2C(N)=O)n1` (relative stereo) [Example 1.89, rel-5-{[(3S,4S)-4-amino-1,1-dioxidotetrahydro-2H-thiopyran-3-yl]amino}-3-[(1-methyl-1H-pyrazol-3-yl)amino]pyridine-2-carboxamide]: 100 to 1000 nM. Take `Cc1ccc(-n2nc(Nc3cc(N[C@@H]4CCCC[C@@H]4N)cnc3C(N)=O)cc2C)cc1` [Example 1.79, 5-{[(1R,2S)-2-aminocyclohexyl]amino}-3-{[5-methyl-1-(4-methylphenyl)-1H-pyrazol-3-yl]amino}pyridine-2-carboxamide]: the IC50 was below 10 nM. For `Cc1nc(Nc2cc(N[C@@H]3CCCC[C@@H]3N)cnc2C(N)=O)ccc1-c1ccc(-n2nccn2)cc1` [Example 3.15, 5-{[(1R,2S)-2-aminocyclohexyl]amino}-3-({6-methyl-5-[4-(2H-1,2,3-triazol-2-yl)phenyl]pyridin-2-yl}amino)pyridine-2-carboxamide], the IC50 is below 10 nM. Regarding `Cc1cc(C)nc(Nc2cc(NC(CN)c3ccccc3)cnc2C(N)=O)c1` (centres unmarked) [Example 1.22, 5-[(2-amino-1-phenylethyl)amino]-3-[(4,6-dimethylpyridin-2-yl)amino]pyridine-2-carboxamide], the IC50 is below 10 nM. In the case of `Cc1cc(C)nc(Nc2cc(NCC3(N)CCS(=O)(=O)CC3)cnc2C(N)=O)c1` [Example 1.29, 5-{[(4-amino-1,1-dioxidotetrahydro-2H-thiopyran-4-yl)methyl]amino}-3-[(4,6-dimethylpyridin-2-yl)amino]pyridine-2-carboxamide], the IC50 lay in the range of 10 to 100 nM. Consider `Cc1nc(Nc2cc(N[C@@H]3CCCC[C@@H]3N)cnc2C(N)=O)ccc1-n1ccnn1` [Example 1.74, 5-{[(1R,2S)-2-aminocyclohexyl]amino}-3-{[6-methyl-5-(1H-1,2,3-triazol-1-yl)pyridin-2-yl]amino}pyridine-2-carboxamide], for which the IC50 is below 10 nM. On the same count and under the same terms, the figure for `Cc1cc(C)nc(Nc2cc(N[C@H]3CCC[C@H]3N)cnc2C(N)=O)c1` (single isomer, unassigned) [Example 1.25] is 10 to 100 nM; for `NC(=O)c1ncc(N[C@@H]2CCCC[C@@H]2N)cc1Nc1cccc(N2CCOCC2)n1` [Example 1.57, 5-{[(1R,2S)-2-aminocyclohexyl]amino}-3-[(6-morpholin-4-ylpyridin-2-yl)amino]pyridine-2-carboxamide] it is below 10 nM; for `Cc1cc(C)nc(Nc2cc(N[C@@H](CC(C)C)C(N)=O)cnc2C(N)=O)c1` [Example 1.45, N^2-{6-carbamoyl-5-[(4,6-dimethylpyridin-2-yl)amino]pyridin-3-yl}- -leucinamide] it is below 10 nM.

As for `Cc1nc(Cl)cc(Nc2cc(N[C@@H]3CCCC[C@@H]3N)cnc2C(N)=O)n1` [Example 1.127, 5-{[(1R,2S)-2-aminocyclohexyl]amino}-3-[(6-chloro-2-methylpyrimidin-4-yl)amino]pyridine-2-carboxamide], the IC50 is below 10 nM. The same measure, in the same setting: the figure for `Cc1cc(C)nc(Nc2cc(NCCN)cnc2C(N)=O)c1` [Example 1.5, 5-[(2-aminoethyl)amino]-3-[(4,6-dimethylpyridin-2-yl)amino]pyridine-2-carboxamide] is below 10 nM. As for `Cc1cc(Nc2cc(N[C@@H]3CCCC[C@@H]3N)cnc2C(N)=O)nc(-c2cnc(C(C)(C)O)s2)c1` [Example 1.114, 5-{[(1R,2S)-2-aminocyclohexyl]amino}-3-({6-[2-(1-hydroxy-1-methylethyl)-1,3-thiazol-5-yl]-4-methylpyridin-2-yl}amino)pyridine-2-carboxamide], the half-maximal inhibitory concentration (IC50) was below 10 nM. Take `Cc1cc(Nc2cc(N[C@@H]3CCCC[C@@H]3N)cnc2C(N)=O)nc(-c2cnn3c2CCC3)c1` [Example 1.115, 5-{[(1R,2S)-2-aminocyclohexyl]amino}-3-{[6-(5,6-dihydro-4H-pyrrolo[1,2-b]pyrazol-3-yl)-4-methylpyridin-2-yl]amino}pyridine-2-carboxamide]: the IC50 was below 10 nM. Turning to `NC(=O)c1ncc(N[C@@H]2CCCC[C@@H]2N)cc1Nc1ccnc(-n2nccn2)n1` [Example 1.122, 5-{[(1R,2S)-2-aminocyclohexyl]amino}-3-{[2-(2H-1,2,3-triazol-2-yl)pyrimidin-4-yl]amino}pyridine-2-carboxamide], the IC50 is below 10 nM.

For the compound `NC(=O)c1ncc(N[C@@H]2CCCC[C@@H]2N)cc1Nc1ccn(-c2ccc(Cl)cc2)n1` [Example 1.63, 5-{[(1R,2S)-2-aminocyclohexyl]amino}-3-{[1-(4-chlorophenyl)-1H-pyrazol-3-yl]amino}pyridine-2-carboxamide], the IC50 is below 10 nM. As for `NC(=O)c1ncc(N[C@H]2[C@@H](N)CCCC2(F)F)cc1Nc1ccn(-c2ccc(F)cc2)n1` [Example 1.87, 5-{[(1S,6S)-6-amino-2,2-difluorocyclohexyl]amino}-3-{[1-(4-fluorophenyl)-1H-pyrazol-3-yl]amino}pyridine-2-carboxamide], the IC50 is below 10 nM. On to `Cc1cc(C)nc(Nc2cc(NC(CN)c3ccccc3)cnc2C(N)=O)c1` (centres unmarked) [Example 1.23, 5-[(2-amino-1-phenylethyl)amino]-3-[(4,6-dimethylpyridin-2-yl)amino]pyridine-2-carboxamide], for which the IC50 lay within 10 to 100 nM. Still for that read-out and setting: the figure for `CCNC(=O)Nc1cnc(C(N)=O)c(Nc2cc(C)cc(C)n2)c1` [Example 15, 3-[(4,6-dimethylpyridin-2-yl)amino]-5-[(ethylcarbamoyl)amino]pyridine-2-carboxamide] is 100 to 1000 nM; for `Cc1cc(C)nc(Nc2cc(NCC(N)C3CC3)cnc2C(N)=O)c1` (centres unmarked) [Example 1.118, 5-[(2-amino-2-cyclopropylethyl)amino]-3-[(4,6-dimethylpyridin-2-yl)amino]pyridine-2-carboxamide] it is below 10 nM; for `NC(=O)c1ncc(N[C@@H]2CCCC[C@@H]2N)cc1Nc1ccncn1` [Example 1.123, 5-{[(1R,2S)-2-aminocyclohexyl]amino}-3-(pyrimidin-4-ylamino)pyridine-2-carboxamide] it is 100 to 1000 nM. `NC(=O)c1ncc(NCC2(N)CC2)cc1Nc1cccc(C(F)(F)F)n1` [Example 1.103, 5-{[(1-aminocyclopropyl)methyl]amino}-3-{[6-(trifluoromethyl)pyridin-2-yl]amino}pyridine-2-carboxamide]: the IC50 is below 10 nM. For the compound `Cc1nc(Nc2cc(N[C@@H]3CCCC[C@@H]3N)cnc2C(N)=O)ccc1-c1cnn(C)c1` [Example 1.11, 5-{[(1R,2S)-2-aminocyclohexyl]amino}-3-{[6-methyl-5-(1-methyl-1H-pyrazol-4-yl)pyridin-2-yl]amino}pyridine-2-carboxamide], the IC50 was below 10 nM. Same read-out and setting: next, `NC(=O)c1ncc(N[C@@H]2CCCC[C@@H]2N)cc1Nc1cccc(-c2ccccc2)n1` [Example 1.28, 5-{[(1R,2S)-2-aminocyclohexyl]amino}-3-[(6-phenylpyridin-2-yl)amino]pyridine-2-carboxamide]: below 10 nM; `NC(=O)c1ncc(N[C@@H]2CCCC[C@@H]2N)cc1Nc1nc(Cl)ncc1F` [Example 1.128, 5-{[(1R,2S)-2-aminocyclohexyl]amino}-3-[(2-chloro-5-fluoropyrimidin-4-yl)amino]pyridine-2-carboxamide]: 10 to 100 nM; `Cc1cc(C)nc(Nc2cc(NCC(N)CO)cnc2C(N)=O)c1` (centres unmarked) [Example 2.14, 5-[(2-amino-3-hydroxypropyl)amino]-3-[(4,6-dimethylpyridin-2-yl)amino]pyridine-2-carboxamide]: 10 to 100 nM. `Cc1cc2ccsc2c(Nc2cc(N[C@@H]3CCCC[C@@H]3N)cnc2C(N)=O)n1` [Example 1.107, 5-{[(1R,2S)-2-aminocyclohexyl]amino}-3-[(5-methylthieno[2,3-c]pyridin-7-yl)amino]pyridine-2-carboxamide]: the IC50 is below 10 nM. `COc1ncc(-c2ccc(Nc3cc(N[C@@H]4CCCC[C@@H]4N)cnc3C(N)=O)nc2C)cn1` [Example 3.24, 5-{[(1R,2S)-2-aminocyclohexyl]amino}-3-{[5-(2-methoxypyrimidin-5-yl)-6-methylpyridin-2-yl]amino}pyridine-2-carboxamide]: the IC50 is below 10 nM. For the compound `Cc1nc(Nc2cc(N[C@@H]3CCCC[C@@H]3N)cnc2C(N)=O)ccc1-c1cccc(C(O)C(F)F)c1` (stereo partly drawn) [Example 3.1, 5-{[(1R,2S)-2-aminocyclohexyl]amino}-3-({5-[3-(2,2-difluoro-1-hydroxyethyl)phenyl]-6-methylpyridin-2-yl}amino)pyridine-2-carboxamide], the IC50 is below 10 nM.

With `Cc1cc(-c2cccnc2)cc(Nc2cc(N[C@@H]3CCCC[C@@H]3N)cnc2C(N)=O)n1` [Example 4.2, 5-{[(1R,2S)-2-aminocyclohexyl]amino}-3-[(6′-methyl-3,4′-bipyridin-2′-yl)amino]pyridine-2-carboxamide], the IC50 is below 10 nM.
